Experiment [1] has as its target T1, FAK (Homo sapiens, UniProt Q05397). The experiment in a line: Cell-based capture ELISA for inhibition of FAK autophosphorylation [pY397] in MiaPaCa2 cells. On the procedure:
Cell-Based Assays for Inhibition of FAK Autophosphorylation: MiaPaCa2 and U87MG
ELISA kit from Invitrogen (KHO0441).
Reagents Provided in Biosource FAK [pY397]
The cells were then suspended in cell assay medium.

For experiment [2], the target named is T1, FAK. The experiment in a line: biochemical.
The mark [3] stands for this setting: MIA-PaCa2 cells, + 50% mouse plasma (Table 2), read-out: Mean FAK Cell Mechanistic IC50 + 50% mP MIA-PaCa2.
Where [4] appears, read: MIA-PaCa2 cells on fibronectin, 2 h, no plasma, read-out: Mean FAK Cell Mechanistic IC50 MIA-PaCa2.
Setting [5] is: MIA-PaCa2 cells, + 50% human plasma, read-out: Mean FAK Cell Mechanistic IC50 + 50% hP MIA-PaCa2.

A value given as a limit tells only on which side of the number the result lay.

T1 sequence (Q05397 whole entry): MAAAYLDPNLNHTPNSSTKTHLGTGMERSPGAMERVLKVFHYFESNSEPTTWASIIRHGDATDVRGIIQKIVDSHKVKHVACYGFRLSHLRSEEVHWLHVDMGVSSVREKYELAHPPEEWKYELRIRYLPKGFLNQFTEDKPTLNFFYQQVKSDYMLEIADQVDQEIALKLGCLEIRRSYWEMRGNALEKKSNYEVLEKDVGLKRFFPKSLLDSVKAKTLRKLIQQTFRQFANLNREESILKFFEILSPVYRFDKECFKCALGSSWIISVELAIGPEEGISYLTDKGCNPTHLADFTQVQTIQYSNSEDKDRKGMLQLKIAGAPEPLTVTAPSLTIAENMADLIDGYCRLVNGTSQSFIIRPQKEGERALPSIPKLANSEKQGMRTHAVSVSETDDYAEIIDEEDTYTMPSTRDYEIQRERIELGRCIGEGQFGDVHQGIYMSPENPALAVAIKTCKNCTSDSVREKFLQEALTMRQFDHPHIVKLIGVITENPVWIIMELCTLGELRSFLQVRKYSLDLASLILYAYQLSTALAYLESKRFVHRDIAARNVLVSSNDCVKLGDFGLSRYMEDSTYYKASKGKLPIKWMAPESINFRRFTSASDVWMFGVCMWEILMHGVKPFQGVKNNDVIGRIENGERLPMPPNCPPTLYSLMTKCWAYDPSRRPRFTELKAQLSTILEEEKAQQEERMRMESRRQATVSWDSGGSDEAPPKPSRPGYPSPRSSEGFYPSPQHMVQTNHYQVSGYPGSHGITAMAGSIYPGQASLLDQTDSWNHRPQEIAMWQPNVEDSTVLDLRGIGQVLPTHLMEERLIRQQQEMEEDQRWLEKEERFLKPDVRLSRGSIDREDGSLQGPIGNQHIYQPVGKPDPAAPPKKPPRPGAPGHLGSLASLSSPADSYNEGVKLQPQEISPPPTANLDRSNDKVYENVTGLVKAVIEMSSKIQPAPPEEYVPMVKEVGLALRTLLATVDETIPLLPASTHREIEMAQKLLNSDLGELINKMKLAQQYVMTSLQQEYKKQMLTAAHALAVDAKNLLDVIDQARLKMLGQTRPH

As to `CN(c1ncccc1CNc1nc(Nc2cccc(P3(=O)OCC(C)(C)CO3)c2)ncc1C(F)(F)F)S(C)(=O)=O` [Example 59, N-[3-({[2-{[3-(5,5-dimethyl-2-oxido-1,3,2-dioxaphosphinan-2-yl)phenyl]amino}-5-(trifluoromethyl)pyrimidin-4-yl]amino}methyl)pyridin-2-yl]-N-methylmethanesulfonamide], the results for the 50% inhibitory concentration (IC50) at FAK [1] (setting [3]) and on FAK [2] were 1000 to 10000 nM and < 1000 nM, respectively.
For the compound `CN(c1ncccc1CNc1nc(Nc2ccc(P3(=O)OCC(C)(C)CO3)cc2)ncc1C(F)(F)F)S(C)(=O)=O` [Example 60, N-[3-({[2-{[4-(5,5-dimethyl-2-oxido-1,3,2-dioxaphosphinan-2-yl)phenyl]amino}-5-(trifluoromethyl)pyrimidin-4-yl]amino}methyl)pyridin-2-yl]-N-methylmethanesulfonamide], the IC50 on FAK [1] (setting [4]), at FAK [1] (setting [5]), at FAK [1] (setting [3]) and on FAK [2] was < 1000 nM each time.
Regarding `CCOP(C)(=O)Cc1ccc(Nc2ncc(C(F)(F)F)c(Nc3ccc(Br)c4c3C(=O)N(C)C4)n2)cc1` (centres unmarked) [Example 61, Ethyl [4-({4-[(7-bromo-2-methyl-3-oxo-2,3-dihydro-1H-isoindol-4-yl)amino]-5-(trifluoromethyl)pyrimidin-2-yl}amino)benzyl]methylphosphinate], the IC50 on FAK [1] (setting [4]) is < 1000 nM; at FAK [1] (setting [5]), 1000 to 10000 nM; against FAK [2], < 1000 nM.
For `CCOP(=O)(Cc1ccc(Nc2ncc(C(F)(F)F)c(Nc3ccc(Br)c4c3C(=O)N(C)C4)n2)c(OC)c1)OCC` [Example 62, Diethyl [4-({4-[(7-bromo-2-methyl-3-oxo-2,3-dihydro-1H-isoindol-4-yl)amino]-5-(trifluoromethyl)pyrimidin-2-yl}amino)-3-methoxybenzyl]phosphonate], the IC50 is < 1000 nM at FAK [1] (setting [4]), 1000 to 10000 nM on FAK [1] (setting [5]) and < 1000 nM on FAK [2].
For the compound `CCOP(C)(=O)Cc1ccc(Nc2ncc(C(F)(F)F)c(Nc3ccc(-c4cnn(C)c4)c4c3C(=O)N(C)C4)n2)cc1` (centres unmarked) [Example 63, Ethyl methyl(4-{[4-{[2-methyl-7-(1-methyl-1H-pyrazol-4-yl)-3-oxo-2,3-dihydro-1H-isoindol-4-yl]amino}-5-(trifluoromethyl)pyrimidin-2-yl]amino}benzyl)phosphinate], the IC50 on FAK [1] (setting [4]), on FAK [1] (setting [5]) and against FAK [2] was < 1000 nM each time.
For `CCOP(C)(=O)Cc1ccc(Nc2ncc(C(F)(F)F)c(Nc3ccc(-c4cnn(CCO)c4)c4c3C(=O)N(C)C4)n2)cc1` (centres unmarked) [Example 64, Ethyl (4-{[4-({7-[1-(2-hydroxyethyl)-1H-pyrazol-4-yl]-2-methyl-3-oxo-2,3-dihydro-1H-isoindol-4-yl}amino)-5-(trifluoromethyl)pyrimidin-2-yl]amino}benzyl)methylphosphinate], the half-inhibitory concentration (IC50) on FAK [1] (setting [4]), at FAK [1] (setting [5]) and against FAK [2] was < 1000 nM throughout.
As for `CCOP(C)(=O)Cc1ccc(Nc2ncc(C(F)(F)F)c(Nc3ccc(-c4cnn(C[C@@H](O)CO)c4)c4c3C(=O)N(C)C4)n2)cc1` (stereo partly drawn) [Example 65, Ethyl [4-({4-[(7-{1-[(2R)-2,3-dihydroxypropyl]-1H-pyrazol-4-yl}-2-methyl-3-oxo-2,3-dihydro-1H-isoindol-4-yl)amino]-5-(trifluoromethyl)pyrimidin-2-yl}amino)benzyl]methylphosphinate], the IC50 on FAK [1] (setting [4]), on FAK [1] (setting [5]) and at FAK [2] was < 1000 nM in each case.
Regarding `CCOP(C)(=O)Cc1ccc(Nc2ncc(C(F)(F)F)c(Nc3ccc(-c4ccccc4)c4c3C(=O)N(C)C4)n2)cc1` (centres unmarked) [Example 66, Ethyl methyl[4-({4-[(2-methyl-3-oxo-7-phenyl-2,3-dihydro-1H-isoindol-4-yl)amino]-5-(trifluoromethyl)pyrimidin-2-yl}amino)benzyl]phosphinate], the IC50 on FAK [1] (setting [3]) and against FAK [2] was < 1000 nM throughout.
For `CCOP(C)(=O)Cc1ccc(Nc2ncc(C(F)(F)F)c(Nc3ccc(-c4cn[nH]c4)c4c3C(=O)N(C)C4)n2)cc1` (centres unmarked) [Example 67, Ethyl methyl(4-{[4-{[2-methyl-3-oxo-7-(1H-pyrazol-4-yl)-2,3-dihydro-1H-isoindol-4-yl]amino}-5-(trifluoromethyl)pyrimidin-2-yl]amino}benzyl)phosphinate], the concentration for half-maximal inhibition (IC50) at FAK [1] (setting [4]), on FAK [1] (setting [5]) and on FAK [2] was < 1000 nM each time.
Regarding `C=C(C)c1ccc(Nc2nc(Nc3ccc(CP(C)(=O)OCC)cc3)ncc2C(F)(F)F)c2c1CN(C)C2=O` (centres unmarked) [Example 68, Ethyl methyl(4-{[4-{[2-methyl-3-oxo-7-(prop-1-en-2-yl)-2,3-dihydro-1H-isoindol-4-yl]amino}-5-(trifluoromethyl)pyrimidin-2-yl]amino}benzyl)phosphinate], the IC50 at FAK [1] (setting [4]) was < 1000 nM; at FAK [1] (setting [5]), 1000 to 10000 nM; against FAK [2] it was < 1000 nM.
With `CCOP(=O)(Cc1ccc(Nc2ncc(C(F)(F)F)c(Nc3ccc(-c4cnn(CCO)c4)c4c3C(=O)N(C)C4)n2)c(OC)c1)OCC` [Example 69, Diethyl (4-{[4-({7-[1-(2-hydroxyethyl)-1H-pyrazol-4-yl]-2-methyl-3-oxo-2,3-dihydro-1H-isoindol-4-yl}amino)-5-(trifluoromethyl)pyrimidin-2-yl]amino}-3-methoxybenzyl)phosphonate], the IC50 on FAK [1] (setting [4]), at FAK [1] (setting [5]) and at FAK [2] was < 1000 nM in each case.
Regarding `CCOP(=O)(Cc1ccc(Nc2ncc(C(F)(F)F)c(Nc3ccc(-c4cnn(C[C@H](O)CO)c4)c4c3C(=O)N(C)C4)n2)c(OC)c1)OCC` [Example 70, Diethyl [4-({4-[(7-{1-[(2S)-2,3-dihydroxypropyl]-1H-pyrazol-4-yl}-2-methyl-3-oxo-2,3-dihydro-1H-isoindol-4-yl)amino]-5-(trifluoromethyl)pyrimidin-2-yl}amino)-3-methoxybenzyl]phosphonate], the IC50 on FAK [1] (setting [4]), at FAK [1] (setting [5]) and against FAK [2] was < 1000 nM in each case.
As to `CCOP(=O)(Cc1ccc(Nc2ncc(C(F)(F)F)c(Nc3ccc(-c4cnn(C)c4)c4c3C(=O)N(C)C4)n2)c(OC)c1)OCC` [Example 71, Diethyl (3-methoxy-4-{[4-{[2-methyl-7-(1-methyl-1H-pyrazol-4-yl)-3-oxo-2,3-dihydro-1H-isoindol-4-yl]amino}-5-(trifluoromethyl)pyrimidin-2-yl]amino}benzyl)phosphonate], the IC50 on FAK [1] (setting [4]), at FAK [1] (setting [5]) and at FAK [2] was < 1000 nM each time.
As to `CCOP(=O)(Cc1ccc(Nc2ncc(C(F)(F)F)c(Nc3ccc(-c4cnn(CC(C)(C)O)c4)c4c3C(=O)N(C)C4)n2)c(OC)c1)OCC` [Example 72, Diethyl (4-{[4-({7-[1-(2-hydroxy-2-methylpropyl)-1H-pyrazol-4-yl]-2-methyl-3-oxo-2,3-dihydro-1H-isoindol-4-yl}amino)-5-(trifluoromethyl)pyrimidin-2-yl]amino}-3-methoxybenzyl)phosphonate], the IC50 on FAK [1] (setting [3]) and on FAK [2] was < 1000 nM each time.
Turning to `CCOP(=O)(Cc1ccc(Nc2ncc(C(F)(F)F)c(Nc3ccc(C4=CCN(C(N)=O)CC4)c4c3C(=O)N(C)C4)n2)c(OC)c1)OCC` [Example 73, Diethyl (4-{[4-{[7-(1-carbamoyl-1,2,3,6-tetrahydropyridin-4-yl)-2-methyl-3-oxo-2,3-dihydro-1H-isoindol-4-yl]amino}-5-(trifluoromethyl)pyrimidin-2-yl]amino}-3-methoxybenzyl)phosphonate], the IC50 at FAK [1] (setting [3]) and against FAK [2] was < 1000 nM throughout.
Turning to `CCOP(C)(=O)Cc1ccc(Nc2ncc(C(F)(F)F)c(Nc3ccc(C#CC(C)(C)O)c4c3C(=O)N(C)C4)n2)cc1` (centres unmarked) [Example 75], the half-inhibitory concentration (IC50) at FAK [1] (setting [4]), on FAK [1] (setting [5]) and against FAK [2] was < 1000 nM each time.
Turning to `CCOP(C)(=O)Cc1ccc(Nc2ncc(C(F)(F)F)c(Nc3ccc(C#CC(C)O)c4c3C(=O)N(C)C4)n2)cc1` (centres unmarked) [Example 76, Ethyl (4-{[4-{[7-(3-hydroxybut-1-yn-1-yl)-2-methyl-3-oxo-2,3-dihydro-1H-isoindol-4-yl]amino}-5-(trifluoromethyl)pyrimidin-2-yl]amino}benzyl)methylphosphinate], the IC50 at FAK [1] (setting [4]) is < 1000 nM; at FAK [1] (setting [5]) it was 1000 to 10000 nM; on FAK [2], < 1000 nM.
On to `CCOP(C)(=O)Cc1ccc(Nc2ncc(C(F)(F)F)c(Nc3ccc(C#CCO)c4c3C(=O)N(C)C4)n2)cc1` (centres unmarked) [Example 77, Ethyl (4-{[4-{[7-(3-hydroxyprop-1-yn-1-yl)-2-methyl-3-oxo-2,3-dihydro-1H-isoindol-4-yl]amino}-5-(trifluoromethyl)pyrimidin-2-yl]amino}benzyl)methylphosphinate], for which the 50% inhibitory concentration (IC50) on FAK [1] (setting [4]), at FAK [1] (setting [5]) and on FAK [2] was < 1000 nM in each case.
Consider `CCOP(C)(=O)Cc1ccc(Nc2ncc(C(F)(F)F)c(Nc3ccc(C(C)C)c4c3C(=O)N(C)C4)n2)cc1` (centres unmarked) [Example 78, Ethyl methyl(4-{[4-{[2-methyl-3-oxo-7-(propan-2-yl)-2,3-dihydro-1H-isoindol-4-yl]amino}-5-(trifluoromethyl)pyrimidin-2-yl]amino}benzyl)phosphinate], for which the IC50 at FAK [1] (setting [4]) and on FAK [2] was < 1000 nM throughout.
Turning to `CCOP(C)(=O)Cc1ccc(Nc2ncc(C(F)(F)F)c(Nc3ccc(C4CCC(O)CC4)c4c3C(=O)N(C)C4)n2)cc1` (centres unmarked) [Example 79, Ethyl (4-{[4-{[7-(4-hydroxycyclohexyl)-2-methyl-3-oxo-2,3-dihydro-1H-isoindol-4-yl]amino}-5-(trifluoromethyl)pyrimidin-2-yl]amino}benzyl)methylphosphinate], the IC50 on FAK [1] (setting [4]), at FAK [1] (setting [5]) and against FAK [2] was < 1000 nM each time.
